The source of these data is article PMC8945229, “Development and Biological Characterization of a Novel Selective TrkA Agonist with Neuroprotective Properties against Amyloid Toxicity” (Biomedicines, 2022).

The target of one test is T1, TrkB (Homo sapiens, UniProt Q16620).
T1 construct: expressed in transfected cells
Nature of the test: TrkB phosphorylation in NIH-3T3 cells stably transfected with TrkB. The class given is cell-based. The settings on record: 500 nM, 30′. The procedure: PC12 and HEK293T cells were obtained from LGC Promochem GmbH (Teddington, UK) and cultured under the conditions specified by the manufacturer. NIH3T3 cells were stably transfected with human TrkB plasmid. PC12 cells were grown in DMEM medium (11965084, Gibco, Grand Island, NY, USA) containing 10% Horse Serum (16050122, Gibco, Grand Island, NY, USA), 5% Fetal Bovine Serum (10270106, Gibco, Grand Island, NY, USA), 100 units/mL Penicillin and 0.1 mg/mL Streptomycin (15140122, Gibco, Grand Island, NY, USA) at 5% CO2 and 37 °C. Cells were used between passages 5–20. HEK293T and NIH3T3 cells were grown in the same medium as PC12 cells supplemented with 10% Fetal Bovine Serum and lacking Horse Serum. For transient transfection of HEK293T cells, lipofectamine was used and cells were transfected with human p75^NTR and Traf6 plasmids. To determine the intracellular activity of endogenous secretases, we tagged (tGFP) a truncated mutant (Tm) of APP containing the original amino acids sequence from M516 to N773. This Tm conserves the secretases cleavage sites, clathrin binding site, tau protein binding site, collagen binding site and some glycosylation sites critical for protein localization and intracellular trafficking. The cDNA of the TmAPP gene was amplified by PCR and subcloned into pturbo-GFP vector. […]

A further test concerns hippocampal brain slices. In words: LTP electrophysiology in hippocampal brain slices treated with oligomeric Aβ. Set-up: species or system mouse. Conditions: oligomeric Aβ 5 μM, 500 nM, 3–5 h, vs slices treated only with Aβ. From the text: C57BL/6J mice were euthanized under halothane anesthesia and the brain was quickly dissected and placed in ice-cold oxygenated artificial cerebrospinal fluid (aCSF; 95% O2/5% CO2) containing (in mM): 125 NaCl, 3.5 KCl, 26 NaHCO3, 1 MgCl2 and 10 glucose (pH = 7.4, 315 mOsm/L). The brain was then placed onto the stage of a vibratome (Leica, VT1000S, Leica Biosystems GmbH, Wetzlar, Germany) and transverse slices containing the hippocampus were obtained. […] Field excitatory post-synaptic potentials (fEPSP) were amplified using an EXT-02F amplifier ([…]), digitized with ITC-18 (HEKA Elektronik GmbH, Reutlingern, Germany) and recorded in a computer running Windows 10 with IgorPro software (Wavemetrics Inc., Portland, OR, USA). […] The fEPSP amplitude was calculated from the minimum voltage value of the synaptic response (3–5 ms following stimulation) compared to the baseline voltage prior to stimulation. fEPSP recordings were acquired every 90″ for 10′ before TBS and continued for approximately 50′ following LTP induction. Recorded traces were analyzed using a custom-made script in the IgorPro software (Wavemetrics Inc., Portland, OR, USA).

Structures are written as SMILES.

T1 sequence (Q16620 32-822): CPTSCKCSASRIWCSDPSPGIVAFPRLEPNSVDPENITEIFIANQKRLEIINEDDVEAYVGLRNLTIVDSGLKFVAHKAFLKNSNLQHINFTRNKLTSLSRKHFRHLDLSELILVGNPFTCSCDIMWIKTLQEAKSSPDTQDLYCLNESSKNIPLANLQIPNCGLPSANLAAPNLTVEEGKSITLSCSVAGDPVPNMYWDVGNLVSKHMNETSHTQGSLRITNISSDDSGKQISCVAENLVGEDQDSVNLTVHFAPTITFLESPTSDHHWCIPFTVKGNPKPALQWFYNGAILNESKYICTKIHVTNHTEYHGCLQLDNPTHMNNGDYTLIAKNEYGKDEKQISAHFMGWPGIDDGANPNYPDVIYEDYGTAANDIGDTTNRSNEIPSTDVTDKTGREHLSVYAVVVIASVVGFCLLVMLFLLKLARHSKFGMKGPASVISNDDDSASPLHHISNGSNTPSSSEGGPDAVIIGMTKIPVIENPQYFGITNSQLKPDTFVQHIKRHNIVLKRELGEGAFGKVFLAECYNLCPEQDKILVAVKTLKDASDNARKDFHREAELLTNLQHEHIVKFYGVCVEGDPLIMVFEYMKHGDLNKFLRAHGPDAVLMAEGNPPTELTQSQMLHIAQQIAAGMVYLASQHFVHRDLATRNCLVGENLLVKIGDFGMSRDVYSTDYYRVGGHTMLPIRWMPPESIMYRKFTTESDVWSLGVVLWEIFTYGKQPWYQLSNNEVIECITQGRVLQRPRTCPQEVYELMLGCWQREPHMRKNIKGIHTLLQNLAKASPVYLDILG

For `CC12CCC(O)CC1=CCC1C2CCC2(C)C1CCC21CC1C=CBr` [ENT-A013, (2′R,3S,17S)-2′-(2-Bromovinyl)-5-Androstene-17,1′-Cyclopropan-3-ol], the “TrkB phosphorylation (in words)” value at TrkB is recorded as “did not induce phosphorylation”. Moreover, in the test on hippocampal brain slices, the “synaptic potentiation after TBS (in words)” value is recorded as “significantly increased synaptic potentiation”.
